Measured values as given in ChEMBL document CHEMBL1201862, “PubChem BioAssay data set” (2004).
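A five-concentration, 48-hour dose response in 96-well plates underlies each endpoint, interpolated linearly between surrounding concentrations. Here, GI50 denotes the concentration required for 50% inhibition of growth.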 Active and inactive are the calls of the source. Cut-off read from the data, not from the text of the source: active = GI50 up to about 1.1 µM and inactive = higher.

Experiments:
Test in all cases: NCI anticancer screen, dose series, 48 h
SR = system: SR
SF-539 = system: SF-539
COLO 205 = system: COLO 205
HCT-116 = system: HCT-116
SK-MEL-2 = system: SK-MEL-2
SK-MEL-5 = system: SK-MEL-5
UACC-257 = system: UACC-257
M14 = system: M14
NCI-H522 = system: NCI-H522
SNB-19 = system: SNB-19
OVCAR-8 = system: OVCAR-8
KM12 = system: KM12
SW-620 = system: SW-620
SF-295 = system: SF-295
U-251 = system: U-251
NCI-H226 = system: NCI-H226
HOP-62 = system: HOP-62

Measured: GI50

COc1ccc(CCc2ccccc2CC(=O)O)cc1
inactive: SR > 100 µM | SF-539 > 100 µM | COLO 205 > 100 µM | HCT-116 > 100 µM | SK-MEL-2 > 100 µM | SK-MEL-5 > 100 µM | UACC-257 > 100 µM | M14 > 100 µM | NCI-H522 > 100 µM | SNB-19 > 100 µM | OVCAR-8 > 100 µM | KM12 > 100 µM | SW-620 > 100 µM | SF-295 > 100 µM | U-251 > 100 µM | NCI-H226 > 100 µM

CCOC(=O)C1=C(C)N(Cc2ccccc2)C(=O)C1CC#N (configuration not stated)
inactive: SR 49.8 µM | SF-539 > 100 µM | HOP-62 > 100 µM | COLO 205 > 100 µM | HCT-116 > 100 µM | SK-MEL-2 > 100 µM | UACC-257 > 100 µM | M14 > 100 µM | SNB-19 > 100 µM | OVCAR-8 83.9 µM | KM12 > 100 µM | SW-620 34 µM | SF-295 > 100 µM | U-251 > 100 µM

OC1=CN=COc2ccccc21
inactive: SF-539 > 100 µM | HOP-62 > 100 µM | COLO 205 > 100 µM | HCT-116 > 100 µM | SK-MEL-2 > 100 µM | UACC-257 > 100 µM | M14 > 100 µM | SNB-19 > 100 µM | OVCAR-8 > 100 µM | KM12 > 100 µM | SW-620 > 100 µM | SF-295 > 100 µM | U-251 > 100 µM

CCCCCCCCCCCCCP(=O)(NCC(N)=O)OCC (configuration not stated)
inactive: SF-539 17.4 µM | HOP-62 17.3 µM | COLO 205 17.2 µM | HCT-116 14.8 µM | SK-MEL-2 16.3 µM | SK-MEL-5 18.5 µM | UACC-257 18.9 µM | M14 16.9 µM | NCI-H522 > 10 µM | SNB-19 18.7 µM | OVCAR-8 21.4 µM | KM12 18.4 µM | SW-620 19.9 µM | SF-295 17.3 µM | U-251 17.3 µM | NCI-H226 17.5 µM

O=C(Cc1ccccc1)NS(=O)(=O)c1ccccc1
inactive: SR > 100 µM | SF-539 > 100 µM | HOP-62 > 100 µM | COLO 205 > 100 µM | HCT-116 > 100 µM | SK-MEL-2 > 100 µM | UACC-257 > 100 µM | M14 > 100 µM | NCI-H522 > 100 µM | SNB-19 > 100 µM | OVCAR-8 > 100 µM | KM12 > 100 µM | SW-620 > 100 µM | SF-295 > 100 µM | U-251 > 100 µM | NCI-H226 > 100 µM

CC(=O)C1CC2(c3ccccc3)C(=O)c3ccccc3N2O1 (configuration not stated)
inactive: SR > 100 µM | SF-539 > 100 µM | HOP-62 > 100 µM | COLO 205 > 100 µM | HCT-116 > 100 µM | SK-MEL-5 > 100 µM | UACC-257 > 100 µM | M14 > 100 µM | NCI-H522 > 100 µM | SNB-19 > 100 µM | OVCAR-8 > 100 µM | SW-620 > 100 µM | SF-295 > 100 µM | U-251 > 100 µM | NCI-H226 > 100 µM

Nc1ccc(C(=O)N/C(=C\c2ccc3c(c2)OCO3)c2nc3c(O)nc(S)nc3[nH]2)cc1
inactive: SR > 100 µM | SF-539 > 100 µM | COLO 205 > 100 µM | SK-MEL-2 > 100 µM | SK-MEL-5 > 100 µM | M14 > 100 µM | NCI-H522 > 100 µM | SNB-19 > 100 µM | OVCAR-8 > 100 µM | KM12 > 100 µM | SW-620 > 100 µM | SF-295 > 100 µM | U-251 > 100 µM

CC(=O)N(C(C)=O)c1c(N)n(C)c(=O)[nH]c1=O
inactive: SF-539 > 100 µM | COLO 205 > 100 µM | HCT-116 > 100 µM | SK-MEL-2 > 100 µM | SK-MEL-5 > 100 µM | UACC-257 > 100 µM | M14 > 100 µM | SNB-19 > 100 µM | OVCAR-8 > 100 µM | KM12 > 100 µM | SW-620 > 100 µM | SF-295 > 100 µM | NCI-H226 > 100 µM

COC1=C(C(=O)OC(C)(C)C)[C@]2(C)C(C(=O)OC(C)(C)C)C(OC)=C(C(=O)OC(C)(C)C)[C@]2(C)C1C(=O)OC(C)(C)C (some centres not stated)
inactive: SR 33.6 µM | SF-539 > 100 µM | HOP-62 > 100 µM | COLO 205 60.4 µM | HCT-116 96.4 µM | SK-MEL-2 > 100 µM | SK-MEL-5 35.1 µM | UACC-257 28.2 µM | M14 46.9 µM | NCI-H522 43.8 µM | SNB-19 > 100 µM | OVCAR-8 > 100 µM | KM12 79.1 µM | SW-620 > 100 µM | SF-295 83.4 µM | U-251 > 100 µM | NCI-H226 > 100 µM

CC12C(=O)N(CCN)C(=O)C1C1c3ccccc3C2c2ccccc21 (configuration not stated)
inactive: SF-539 > 100 µM | HOP-62 > 100 µM | COLO 205 > 100 µM | HCT-116 > 100 µM | SK-MEL-2 > 100 µM | SK-MEL-5 > 100 µM | UACC-257 > 100 µM | M14 > 100 µM | NCI-H522 > 100 µM | SNB-19 > 100 µM | OVCAR-8 > 100 µM | KM12 > 100 µM | SW-620 > 100 µM | SF-295 > 100 µM | U-251 > 100 µM | NCI-H226 > 100 µM

Cn1c2ccccc2n2c(=O)c3c(c(C#N)c12)CCCC3
inactive: SR > 100 µM | SF-539 > 100 µM | HOP-62 > 100 µM | COLO 205 > 100 µM | HCT-116 > 100 µM | SK-MEL-2 > 100 µM | SK-MEL-5 > 100 µM | UACC-257 > 100 µM | M14 > 100 µM | SNB-19 > 100 µM | OVCAR-8 > 100 µM | KM12 > 100 µM | SW-620 > 100 µM | SF-295 > 100 µM | U-251 > 100 µM | NCI-H226 > 100 µM

CCOC(=O)C(C)(C)Oc1ccc2c(-c3ccc(Cl)cc3)cc(=O)oc2c1
inactive: SR > 100 µM | SF-539 > 100 µM | HOP-62 > 100 µM | COLO 205 > 100 µM | HCT-116 > 100 µM | SK-MEL-2 > 100 µM | SK-MEL-5 74.8 µM | UACC-257 > 100 µM | M14 > 100 µM | SNB-19 > 100 µM | OVCAR-8 > 100 µM | SW-620 > 100 µM | SF-295 > 100 µM | U-251 > 100 µM | NCI-H226 > 100 µM

CC1SC2=NC3=C(c4ccccc4C3=O)C(c3ccc(F)cc3)N2C1=O (configuration not stated)
inactive: SF-539 > 100 µM | HOP-62 > 100 µM | COLO 205 > 100 µM | HCT-116 > 100 µM | SK-MEL-2 > 100 µM | SK-MEL-5 > 100 µM | UACC-257 > 100 µM | M14 > 100 µM | NCI-H522 26.5 µM | SNB-19 > 100 µM | OVCAR-8 > 100 µM | KM12 > 100 µM | SW-620 > 100 µM | SF-295 > 100 µM | U-251 > 100 µM | NCI-H226 38.5 µM

Nc1ccccc1[S+]([O-])c1ccccc1 (configuration not stated)
inactive: SF-539 > 100 µM | HOP-62 > 100 µM | COLO 205 > 100 µM | HCT-116 > 100 µM | SK-MEL-2 > 100 µM | SK-MEL-5 > 100 µM | M14 > 100 µM | NCI-H522 > 100 µM | SNB-19 > 100 µM | OVCAR-8 > 100 µM | KM12 > 100 µM | SW-620 > 100 µM | SF-295 > 100 µM | U-251 > 100 µM | NCI-H226 > 100 µM

Nc1ccc(Nc2nc(F)nc(-c3c4ccccc4c4n3CCS4)n2)cc1
inactive: SF-539 13.4 µM | HOP-62 16 µM | COLO 205 19.1 µM | HCT-116 14.6 µM | SK-MEL-2 14.1 µM | SK-MEL-5 13.1 µM | UACC-257 > 10 µM | M14 17 µM | NCI-H522 14 µM | SNB-19 15.4 µM | OVCAR-8 16.8 µM | KM12 10.9 µM | SW-620 13 µM | SF-295 15.7 µM | U-251 14.7 µM | NCI-H226 11.6 µM

Cc1cc(Cl)ccc1NC1=NC(=O)C(CC(=O)Nc2ccc([N+](=O)[O-])cc2[N+](=O)[O-])S1 (configuration not stated)
inactive: SF-539 24.3 µM | HOP-62 31.6 µM | COLO 205 36.6 µM | SK-MEL-2 20.5 µM | SK-MEL-5 15.6 µM | UACC-257 28.4 µM | M14 24.2 µM | SNB-19 26.9 µM | OVCAR-8 34.1 µM | KM12 35.1 µM | SW-620 32.9 µM | SF-295 22.9 µM | U-251 23.3 µM

CCC(C)CC(C)CC(C)/C=C(\C)C1=C(C)CC(C)(O)O1 (configuration not stated)
inactive: SF-539 > 100 µM | COLO 205 > 100 µM | HCT-116 41 µM | SK-MEL-5 92.5 µM | UACC-257 79.1 µM | M14 > 100 µM | NCI-H522 42.2 µM | OVCAR-8 69.7 µM | SW-620 > 100 µM | U-251 61.8 µM | NCI-H226 76.9 µM

C[C@@H]1C2=CC[C@@]3(C)C(CCC3[C@H](C)[C@H]3C[C@@]4(C)O[C@@](c5cccnc5)(O3)OC4(C)C)[C@@H]2C2OC2[C@@]12CCC(=O)O2 (some centres not stated)
inactive: SR 9.4 µM | SF-539 52.2 µM | HOP-62 66.7 µM | COLO 205 30 µM | HCT-116 40.8 µM | SK-MEL-2 25.2 µM | SK-MEL-5 33 µM | UACC-257 44 µM | M14 26.1 µM | NCI-H522 29.3 µM | SNB-19 49.1 µM | OVCAR-8 32.4 µM | KM12 38.8 µM | SW-620 37.7 µM | SF-295 31.2 µM | U-251 35.6 µM
